According to publication PMC3817062, “N-Alkylated Aminoacyl sulfamoyladenosines as Potential Inhibitors of Aminoacylation Reactions and Microcin C Analogues Containing D-Amino Acids” (PLoS ONE, 2013):
Non-standard residues stand in square brackets, D forms with d. Residues, ends and D or L forms follow the SMILES beside them. *: point of attachment. AspNHSO2(5'-O-Ado) = Nc1ncnc2c1ncn2[C@@H]1O[C@H](COS(=O)(=O)NC(=O)[C@H](CC(=O)O)N*)[C@@H](O)[C@H]1O; X1 = Nc1ncnc2c1ncn2[C@@H]1O[C@H](COS(=O)(=O)NC(=O)[C@@H](CC(=O)O)N*)[C@@H](O)[C@H]1O; For = O=C*

Columns and labels:
AlaRS [1] = biological target: T1, AlaRS (Escherichia coli, UniProt P00957); conditions: positive control, previously shown; cited from earlier work
T1 construct: endogenous in cells; host or cells: E. coli wild-type S30 cell extract
T1 sequence (P00957 whole entry): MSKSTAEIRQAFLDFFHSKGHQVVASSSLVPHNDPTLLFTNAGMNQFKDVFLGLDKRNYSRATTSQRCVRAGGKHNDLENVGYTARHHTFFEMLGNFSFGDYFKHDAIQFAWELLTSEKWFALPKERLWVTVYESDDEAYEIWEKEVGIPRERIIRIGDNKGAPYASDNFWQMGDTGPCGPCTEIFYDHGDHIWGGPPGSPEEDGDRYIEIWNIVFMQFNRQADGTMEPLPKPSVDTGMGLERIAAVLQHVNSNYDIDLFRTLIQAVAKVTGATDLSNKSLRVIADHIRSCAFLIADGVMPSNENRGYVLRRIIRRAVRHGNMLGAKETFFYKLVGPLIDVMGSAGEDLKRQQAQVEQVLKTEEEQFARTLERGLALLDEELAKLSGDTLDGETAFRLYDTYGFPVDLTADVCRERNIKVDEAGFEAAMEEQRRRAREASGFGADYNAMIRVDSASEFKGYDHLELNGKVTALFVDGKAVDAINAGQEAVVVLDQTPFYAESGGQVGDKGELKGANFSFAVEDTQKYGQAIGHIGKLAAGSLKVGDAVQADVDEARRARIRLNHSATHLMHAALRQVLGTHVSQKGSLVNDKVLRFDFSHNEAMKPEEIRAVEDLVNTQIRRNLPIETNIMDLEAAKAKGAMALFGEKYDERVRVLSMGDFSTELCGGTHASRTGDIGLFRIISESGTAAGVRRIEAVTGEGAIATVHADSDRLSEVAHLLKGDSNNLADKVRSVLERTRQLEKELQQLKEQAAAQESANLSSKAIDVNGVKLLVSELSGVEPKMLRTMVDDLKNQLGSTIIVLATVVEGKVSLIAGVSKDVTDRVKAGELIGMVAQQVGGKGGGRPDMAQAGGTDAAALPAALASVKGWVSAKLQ
Method: (§1) All experiments were performed in triplicate.

GlyRS [2] = biological target: T2, GlyRS (Escherichia coli, UniProt P00960); conditions: positive control, previously shown; cited from earlier work
T2 sequence (P00961 2-689): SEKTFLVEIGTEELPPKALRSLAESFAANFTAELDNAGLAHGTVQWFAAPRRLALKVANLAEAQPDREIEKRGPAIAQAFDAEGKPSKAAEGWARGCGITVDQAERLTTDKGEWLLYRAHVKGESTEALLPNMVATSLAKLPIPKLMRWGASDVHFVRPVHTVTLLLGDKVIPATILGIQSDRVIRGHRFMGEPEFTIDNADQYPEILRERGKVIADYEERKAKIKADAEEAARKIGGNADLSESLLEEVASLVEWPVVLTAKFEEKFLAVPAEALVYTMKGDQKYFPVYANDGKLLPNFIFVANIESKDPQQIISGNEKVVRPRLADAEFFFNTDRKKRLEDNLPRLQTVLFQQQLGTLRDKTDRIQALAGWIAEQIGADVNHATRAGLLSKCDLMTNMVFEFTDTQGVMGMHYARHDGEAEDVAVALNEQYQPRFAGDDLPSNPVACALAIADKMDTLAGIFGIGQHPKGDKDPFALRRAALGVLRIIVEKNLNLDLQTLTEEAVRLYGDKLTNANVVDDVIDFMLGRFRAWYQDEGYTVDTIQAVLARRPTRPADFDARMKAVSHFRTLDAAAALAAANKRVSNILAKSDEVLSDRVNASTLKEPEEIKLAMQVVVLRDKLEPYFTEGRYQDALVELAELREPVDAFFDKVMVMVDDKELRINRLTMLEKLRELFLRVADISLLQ
T2 sequence (P00960 whole entry): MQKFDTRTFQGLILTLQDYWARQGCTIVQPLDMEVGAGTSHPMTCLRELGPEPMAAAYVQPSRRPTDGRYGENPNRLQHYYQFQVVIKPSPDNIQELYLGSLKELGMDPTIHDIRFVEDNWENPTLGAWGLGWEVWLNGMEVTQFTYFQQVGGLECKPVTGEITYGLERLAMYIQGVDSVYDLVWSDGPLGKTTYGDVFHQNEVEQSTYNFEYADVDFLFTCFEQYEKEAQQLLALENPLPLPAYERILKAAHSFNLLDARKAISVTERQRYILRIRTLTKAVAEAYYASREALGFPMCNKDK

ProRS [3] = biological target: T3, ProRS (Escherichia coli, UniProt P16659); conditions: positive control, previously shown; cited from earlier work
T3 construct: endogenous in cells; host or cells: E. coli wild-type S30 cell extract
T3 sequence (P16659 whole entry): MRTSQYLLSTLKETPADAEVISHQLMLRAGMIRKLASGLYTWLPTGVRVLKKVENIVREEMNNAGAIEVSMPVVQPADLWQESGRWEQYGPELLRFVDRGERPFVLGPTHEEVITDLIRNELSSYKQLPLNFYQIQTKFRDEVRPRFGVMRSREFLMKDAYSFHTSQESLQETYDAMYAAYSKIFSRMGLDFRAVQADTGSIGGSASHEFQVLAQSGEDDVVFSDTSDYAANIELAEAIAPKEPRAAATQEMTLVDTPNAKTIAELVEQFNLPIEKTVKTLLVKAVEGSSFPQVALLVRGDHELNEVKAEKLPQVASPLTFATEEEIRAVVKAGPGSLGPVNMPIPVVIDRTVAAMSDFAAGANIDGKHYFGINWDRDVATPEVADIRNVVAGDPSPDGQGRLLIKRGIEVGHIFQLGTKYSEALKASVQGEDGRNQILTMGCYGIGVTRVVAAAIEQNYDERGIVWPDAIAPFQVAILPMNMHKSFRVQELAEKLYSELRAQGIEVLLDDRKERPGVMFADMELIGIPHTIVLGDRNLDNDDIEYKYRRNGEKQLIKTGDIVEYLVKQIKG
Method: as §1

McC-sensitive E. coli = assay: Whole cell activity determination (OD600), all cells tested; type: cell-based; conditions: all cells tested (Ara-Yej strain, E. coli lacking rim genes); OD600 after 8 h, 37 °C, LB; data not shown
LeuRS = biological target: T4, LeuRS (Escherichia coli, UniProt P07813); assay: In vitro tRNA aminoacylation in S30 cell extract, LeuRS; type: biochemical, E. coli; conditions: 50 µM, wild-type cell extract, triplicate; Figure 3
T4 construct: endogenous in cells; host or cells: E. coli wild-type S30 cell extract
T4 sequence (P07813 whole entry): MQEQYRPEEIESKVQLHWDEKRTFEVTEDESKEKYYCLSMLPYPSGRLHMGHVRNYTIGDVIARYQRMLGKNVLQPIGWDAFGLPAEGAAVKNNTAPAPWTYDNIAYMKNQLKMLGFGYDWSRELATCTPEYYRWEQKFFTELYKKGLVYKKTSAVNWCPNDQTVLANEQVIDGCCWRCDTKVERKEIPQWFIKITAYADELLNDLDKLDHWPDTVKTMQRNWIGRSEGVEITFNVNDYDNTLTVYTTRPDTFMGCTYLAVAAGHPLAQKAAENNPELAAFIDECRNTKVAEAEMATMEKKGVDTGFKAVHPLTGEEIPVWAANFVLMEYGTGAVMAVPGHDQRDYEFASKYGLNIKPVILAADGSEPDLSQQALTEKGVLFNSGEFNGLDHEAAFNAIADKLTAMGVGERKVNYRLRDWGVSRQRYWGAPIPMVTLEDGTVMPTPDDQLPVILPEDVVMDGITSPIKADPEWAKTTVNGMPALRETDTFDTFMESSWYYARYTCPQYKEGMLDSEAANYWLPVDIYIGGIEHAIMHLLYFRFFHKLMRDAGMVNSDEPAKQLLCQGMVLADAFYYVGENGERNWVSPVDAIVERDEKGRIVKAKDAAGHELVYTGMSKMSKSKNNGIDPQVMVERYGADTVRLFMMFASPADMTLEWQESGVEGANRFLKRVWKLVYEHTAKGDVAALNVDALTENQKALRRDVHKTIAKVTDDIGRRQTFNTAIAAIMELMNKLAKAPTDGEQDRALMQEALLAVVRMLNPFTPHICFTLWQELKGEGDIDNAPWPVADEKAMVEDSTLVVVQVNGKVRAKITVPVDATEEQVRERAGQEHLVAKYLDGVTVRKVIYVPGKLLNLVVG
Method: (§2) The growth inhibitory properties for all new compounds were determined by measuring the optical density reached by cultures of McC-sensitive E. coli in wells of microtiter plates in the presence of various concentrations of the respective inhibitors. As shown earlier, the intracellular target of McC analogs is determined by the C-terminal amino acid, which remains attached onto the sulfamoyladenosine following intracellular metabolism. To facilitate activity evaluation and the mechanism of action studies of newly synthesized compounds, an E. coli tester strain Ara-Yej (BW39758) was used, where the yejABEF operon is under control of the arabinose-inducible araBAD promoter. […] In addition to the Ara-Yej strain, E. coli lacking rim genes (and therefore hypersensitive to McC) was used as a tester strain. […] In in vitro aminoacylation experiments, compound 3 was tested for its potential to inhibit ProRS, GlyRS and AlaRS and compound 2 was tested for its ability to inhibit LeuRS in a wild-type cell extract. Established inhibitors of these enzymes are the respective 5’-O-[N-[L-aminoacyl]-sulfamoyl]adenosines: Pro-SA, Gly-SA, Ala-SA and Leu-SA [2-4]. […]
(§3) 1 μL of solution containing inhibitor, 3 μL of E. coli S30 extracts was added. […] Following the addition of scintillation liquid, the amount of radioactivity was determined in a scintillation counter.

ProRS [4] = biological target: T3, ProRS; assay: In vitro tRNA aminoacylation in S30 cell extract, ProRS; type: biochemical, E. coli; conditions: 50 µM, wild-type cell extract, triplicate; Figure 3
Method: as §2, §3

GlyRS [5] = biological target: T2, GlyRS; assay: In vitro tRNA aminoacylation in S30 cell extract, GlyRS; type: biochemical, E. coli; set-up: endogenous in cells; host or cells: E. coli wild-type S30 cell extract; conditions: 50 µM, wild-type cell extract, triplicate; Figure 3
Method: as §2, §3

AlaRS [6] = biological target: T1, AlaRS; assay: In vitro tRNA aminoacylation in S30 cell extract, AlaRS; type: biochemical, E. coli; conditions: 50 µM, wild-type cell extract, triplicate; Figure 3
Method: as §2, §3

[7] = tested on: peptidases PepA, PepB and PepN; assay: Metabolism (processing) of the peptide chain by peptidases, release of the active moiety; type: in vitro ADME; conditions: E. coli S30 cell extracts; concluded from aminoacylation inhibition experiments
Source text: This is a somewhat expected result as it has frequently been shown that the introduction of (D)-amino acids can prevent the hydrolysis by peptidases.
Compounds 5-7 were especially designed to circumvent this problem; all three compounds contain L-amino acids at the sixth and seventh position, allowing endopeptidases to cleave between these two L-amino acids, resulting in release of the active moiety. […] Also the modification in compound 6, inspired by albomycin whereby pepN hydrolyzes the peptide bond between a serine and a modified amino acid carrying an acidic side chain [22], could not rescue the activity. […] Whether or not incorporation of (D)-amino acids in the transport peptide part interferes with uptake of the McC derivatives by the YejABEF transporter is less relevant here, as in vitro tests already show lack of activity. Additional reduced uptake of the analogues 4-7 however cannot be excluded.
Cells were grown in 50 mL LB-medium. After centrifuging at 3000 × g for 10 min. the supernatant was discarded and the pellet was resuspended in 40 mL buffer containing: Tris.HCl or Hepes.KOH (pH = 8.0) (20 mM), MgCl2 (10 mM), KCl (100 mM). […]
as §3

AspRS = biological target: T5, AspRS (Escherichia coli, UniProt P21889); assay: In vitro tRNA aminoacylation in S30 cell extracts, AspRS; type: biochemical, E. coli; conditions: for inhibition of AspRS in vitro: aminoacylation in cell extracts, compound needs no metabolism
T5 construct: endogenous in cells; host or cells: S30 extracts of E. coli ΔrimL, ΔpepABN and Δdtd cells
T5 sequence (P21889 whole entry): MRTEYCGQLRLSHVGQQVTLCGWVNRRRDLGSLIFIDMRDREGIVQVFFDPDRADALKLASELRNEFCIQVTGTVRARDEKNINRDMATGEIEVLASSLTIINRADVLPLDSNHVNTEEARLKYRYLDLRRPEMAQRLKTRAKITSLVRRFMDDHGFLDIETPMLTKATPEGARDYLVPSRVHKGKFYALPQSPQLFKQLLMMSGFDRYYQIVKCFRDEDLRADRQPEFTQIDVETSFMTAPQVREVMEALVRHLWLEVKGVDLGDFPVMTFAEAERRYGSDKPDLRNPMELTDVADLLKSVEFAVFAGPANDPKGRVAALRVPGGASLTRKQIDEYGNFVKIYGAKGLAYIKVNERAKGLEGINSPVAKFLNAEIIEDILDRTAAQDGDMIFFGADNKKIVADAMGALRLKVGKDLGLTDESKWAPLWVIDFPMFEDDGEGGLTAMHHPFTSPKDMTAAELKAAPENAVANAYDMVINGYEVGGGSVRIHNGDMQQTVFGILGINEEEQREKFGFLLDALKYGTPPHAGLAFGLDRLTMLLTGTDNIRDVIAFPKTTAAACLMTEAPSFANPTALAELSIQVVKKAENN
Method: Figure 5 Aminoacylation experiments of the McC analogues containing (D)-amino acids at 50 µM. Upper panel: 30 min incubation with a cell extract deficient of RimL. Middle panel: 30 min incubation with a cell extract deficient of PepA, PepB and PepN. Lower panel: Comparison of two McC analogues targeting AspRS, compound 8 having a C-terminal D-configuration, compound 1f having a C-terminal (L)-configuration. Incubation was done with two different cell extracts, lacking either DTD or RimL.
To investigate whether compound 8 would be more resistant than compound 1f to MccF-catalyzed hydrolysis and/or MccE/RimL-catalyzed acetylation, and to investigate a possible role of DTD, a time-course of tRNA^Asp aminoacylation inhibition was followed in two different cell extracts, one prepared from cells lacking Rim proteins, and another from cells lacking DTD. From Figure 5 (lower panel) it can be observed that at time point zero, i.e., immediately after addition of the compounds, there was no inhibition since the compounds were still unmetabolized. […] Upon further incubation, the reaction recovered from inhibition for both compounds. For compound 8 this effect was more pronounced than for compound 1f, especially in cell extracts prepared from cells lacking DTD proteins.
To assess the degree of inhibition of the aminoacylation reaction, in vitro tests were performed using the relevant S30 cell extracts.
Cells were grown in 50 mL LB-medium. After centrifuging at 3000 × g for 10 min. the supernatant was discarded and the pellet was resuspended in 40 mL buffer containing: Tris.HCl or Hepes.KOH (pH = 8.0) (20 mM), MgCl2 (10 mM), KCl (100 mM). The cell-suspension was centrifuged again at 4800 rpm. This procedure was repeated 2 times. The pellet was resuspended in 1 mL of the following buffer Tris.HCl or Hepes.KOH (pH = 8.0) (20 mM), MgCl2 (10 mM), KCl (100 mM), DTT (1 mM) and kept at 0 °C. Subsequently, the cells were sonicated for 10 sec. and left at 0 °C for 10 min. This procedure was repeated for 5-8 times. The lysate was centrifuged at 15000 g for 30 min at +4 °C.
1 μL of solution containing inhibitor, 3 μL of E. coli S30 extracts was added. Next, 16 μL of the following aminoacylation mixture was added: Tris.HCl (30mM, pH 8.0), DTT (1 mM), bulk of E. coli tRNA (5 g/l), ATP (3 mM), KCl (30 mM), MgCl2 (8 mM), and the specified, radio labeled amino acid (40 μM). The reaction products were precipitated in cold 10% TCA on Whatman 3MM papers, 5 min. after the aminoacylation mixture was added. The aminoacylation reaction was carried out at room temperature. Depending on whether or not processing was needed, variable time intervals were included between the addition of the cell-extract and the addition of the aminoacylation mixture. After thorough washing with cold 10% TCA, the papers were washed twice with acetone and dried on a heating plate. Following the addition of scintillation liquid, the amount of radioactivity was determined in a scintillation counter.

[8] = time course, extract from cells lacking DTD, at 15 min

Structure (SMILES): C[C@H](N)C(=O)NS(=O)(=O)OC[C@H]1O[C@@H](n2cnc3c(N)ncnc32)[C@H](O)[C@@H]1O [Ala-SA]
- inhibition of AlaRS (AlaRS [1]): potent inhibitors

Structure (SMILES): NCC(=O)NS(=O)(=O)OC[C@H]1O[C@@H](n2cnc3c(N)ncnc32)[C@H](O)[C@@H]1O [Gly-SA]
- inhibition of GlyRS (GlyRS [2]): potent inhibitors

Structure (SMILES): Nc1ncnc2c1ncn2[C@@H]1O[C@H](COS(=O)(=O)NC(=O)[C@@H]2CCCN2)[C@@H](O)[C@H]1O [Pro-SA, 5’-O-[N-[(L)-prolyl]-sulfamoyl]adenosine]
- inhibition of ProRS (ProRS [3]): potent inhibitors

Structure (SMILES): CN[C@@H](CC(C)C)C(=O)NS(=O)(=O)OC[C@H]1O[C@@H](n2cnc3c(N)ncnc32)[C@H](O)[C@@H]1O [compound 2, 5’-O-[N-[(L)-N-methyl-leucyl]-sulfamoyl]adenosine]
- whole-cell activity (growth inhibition) (McC-sensitive E. coli): inactive
- inhibition of LeuRS aminoacylation (LeuRS): inactive

Structure (SMILES): CNCC(=O)NS(=O)(=O)OC[C@H]1O[C@@H](n2cnc3c(N)ncnc32)[C@H](O)[C@@H]1O [compound 3, sarcosyl-sulfamoyladenosine]
- inhibition of ProRS aminoacylation (ProRS [4]): does not show any major inhibitory binding affinity
- inhibition of GlyRS aminoacylation (GlyRS [5]): could not be targeted
- whole-cell activity (growth inhibition) (McC-sensitive E. coli): inactive
- inhibition of AlaRS aminoacylation (AlaRS [6]): could not be targeted

Structure (SMILES): CSCC[C@H](NC=O)C(=O)N[C@H](CCCNC(=N)N)C(=O)N[C@@H](C(=O)NCC(=O)N[C@H](CC(N)=O)C(=O)N[C@H](C)C(=O)N[C@@H](CC(=O)O)C(=O)NS(=O)(=O)OC[C@H]1O[C@@H](n2cnc3c(N)ncnc32)[C@H](O)[C@@H]1O)[C@H](C)O [compound 4] (For-M[dR][dT]G[dN][dA]-{AspNHSO2(5'-O-Ado)})
- metabolism by the peptidases (release of the active moiety) [7]: not capable of hydrolyzing

Structure (SMILES): CSCC[C@H](NC=O)C(=O)N[C@@H](CCCNC(=N)N)C(=O)N[C@H](C(=O)NCC(=O)N[C@@H](CC(N)=O)C(=O)N[C@@H](C)C(=O)N[C@H](CC(=O)O)C(=O)NS(=O)(=O)OC[C@H]1O[C@@H](n2cnc3c(N)ncnc32)[C@H](O)[C@@H]1O)[C@@H](C)O [compound 8] (For-MRTGNA-X1)
- reduction of esterification of Asp-C14 to tRNAAsp (AspRS; time course, extract from cells lacking DTD, after 60 min): 44%
- incorporation of Asp-C14 into tRNAAsp (AspRS; [8]): 11%
- inhibition of tRNAAsp aminoacylation (AspRS; [8]): 89%
- metabolism by the peptidases (release of the active moiety) [7]: can metabolize

Structure (SMILES): Nc1ncnc2c1ncn2[C@@H]1O[C@H](COS(=O)(=O)NC(=O)[C@H](N)CC(=O)O)[C@@H](O)[C@H]1O [compound 9, (D)-aspartyl-sulfamoyladenosine]
- inhibition of AspRS in vitro (AspRS): can also inhibit AspRS
- inhibition of AspRS in vitro (AspRS; listed as (D)-D-SA): equally inhibitory

Structure (SMILES): Nc1ncnc2c1ncn2[C@@H]1O[C@H](COS(=O)(=O)NC(=O)[C@@H](N)CC(=O)O)[C@@H](O)[C@H]1O [compound 10, (L)-aspartyl-sulfamoyladenosine, reference compound]
- inhibition of AspRS in vitro (AspRS): equally inhibitory
